{
  "source": "the supplement of paper PMC10307832",
  "experiment_in_all_cases": "relative viability (nuclei count vs DMSO), 5 days (fraction); higher = more cells survive",
  "key": {"[1]": {"test_system": "NCI-H460", "summary_of_the_method": "(§1)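 Relative viability equals treated-well nuclei counts divided by vehicle-well nuclei counts. Counts came from 4× images of lung cancer cell lines grown in 1536-well plates for 5 days after pin-tool dosing on the day after seeding. Dosing used one drug alone or a fixed anchor-drug dose plus five library-drug doses (not always all listed) in √10 steps, and values are medians of duplicate plates.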"}, "[2]": {"test_system": "NCI-H1793", "summary_of_the_method": "as §1"}, "[3]": {"test_system": "SW 1573", "summary_of_the_method": "as §1"}, "[4]": {"test_system": "NCI-H1944", "summary_of_the_method": "as §1"}, "[5]": {"test_system": "PC-3 [JPC-3]", "summary_of_the_method": "as §1"}, "[6]": {"test_system": "H3255", "summary_of_the_method": "as §1"}, "[7]": {"test_system": "LCLC-97TM1", "summary_of_the_method": "as §1"}, "[8]": {"test_system": "A-427", "summary_of_the_method": "as §1"}, "[9]": {"test_system": "SW 900", "summary_of_the_method": "as §1"}, "[10]": {"test_system": "COR-L23", "summary_of_the_method": "as §1"}, "[11]": {"test_system": "LCLC-103H", "summary_of_the_method": "as §1"}, "[12]": {"test_system": "201T", "summary_of_the_method": "as §1"}, "[13]": {"test_system": "LU99A", "summary_of_the_method": "as §1"}, "[14]": {"test_system": "NCI-H2347", "summary_of_the_method": "as §1"}, "[15]": {"test_system": "NCI-H650", "summary_of_the_method": "as §1"}, "[16]": {"test_system": "PC-14", "summary_of_the_method": "as §1"}, "[17]": {"test_system": "NCI-H23", "summary_of_the_method": "as §1"}, "[18]": {"test_system": "RERF-LC-KJ", "summary_of_the_method": "as §1"}, "[19]": {"test_system": "LK-2", "summary_of_the_method": "as §1"}, "[20]": {"test_system": "NCI-H727", "summary_of_the_method": "as §1"}, "[21]": {"test_system": "NCI-H1651", "summary_of_the_method": "as §1"}, "[22]": {"test_system": "NCI-H1650", "summary_of_the_method": "as §1"}, "[23]": {"test_system": "NCI-H838", "summary_of_the_method": "as §1"}},
  "data": [
    {"smiles": "CC(C)Oc1cc(Nc2nc(N[C@@H](C)c3ccc(F)cn3)ncc2Cl)n[nH]1", "note": "[AZ23] + Nc1ncn([C@H]2C[C@H](O)[C@@H](CO)O2)c(=O)n1 [Decitabine] (partner 2 µM)", "values": [
      {"measurement": "relative viability", "setting": "[1]; first compound 0.01 µM", "result": 0.489},
      {"measurement": "relative viability", "setting": "[1]; first compound 0.03162 µM", "result": 0.514},
      {"measurement": "relative viability", "setting": "[1]; first compound 0.3162 µM", "result": 0.55},
      {"measurement": "relative viability", "setting": "[2]; first compound 0.01 µM", "result": 0.594},
      {"measurement": "relative viability", "setting": "[2]; first compound 0.03162 µM", "result": 0.559},
      {"measurement": "relative viability", "setting": "[2]; first compound 0.3162 µM", "result": 0.414},
      {"measurement": "relative viability", "setting": "[3]; first compound 0.01 µM", "result": 0.699},
      {"measurement": "relative viability", "setting": "[3]; first compound 0.03162 µM", "result": 0.553},
      {"measurement": "relative viability", "setting": "[3]; first compound 0.3162 µM", "result": 0.612},
      {"measurement": "relative viability", "setting": "[4]; first compound 0.01 µM", "result": 0.456},
      {"measurement": "relative viability", "setting": "[4]; first compound 0.03162 µM", "result": 0.46},
      {"measurement": "relative viability", "setting": "[4]; first compound 0.3162 µM", "result": 0.433},
      {"measurement": "relative viability", "setting": "[5]; first compound 0.01 µM", "result": 0.812},
      {"measurement": "relative viability", "setting": "[5]; first compound 0.03162 µM", "result": 0.851},
      {"measurement": "relative viability", "setting": "[5]; first compound 0.3162 µM", "result": 0.885},
      {"measurement": "relative viability", "setting": "[6]; first compound 0.01 µM", "result": 0.496},
      {"measurement": "relative viability", "setting": "[6]; first compound 0.03162 µM", "result": 0.634},
      {"measurement": "relative viability", "setting": "[6]; first compound 0.3162 µM", "result": 0.613},
      {"measurement": "relative viability", "setting": "[7]; first compound 0.01 µM", "result": 0.273},
      {"measurement": "relative viability", "setting": "[7]; first compound 0.03162 µM", "result": 0.212},
      {"measurement": "relative viability", "setting": "[7]; first compound 0.3162 µM", "result": 0.233},
      {"measurement": "relative viability", "setting": "[8]; first compound 0.01 µM", "result": 0.508},
      {"measurement": "relative viability", "setting": "[8]; first compound 0.03162 µM", "result": 0.558},
      {"measurement": "relative viability", "setting": "[8]; first compound 0.3162 µM", "result": 0.591},
      {"measurement": "relative viability", "setting": "[9]; first compound 0.01 µM", "result": 0.442},
      {"measurement": "relative viability", "setting": "[9]; first compound 0.3162 µM", "result": 0.352},
      {"measurement": "relative viability", "setting": "[10]; first compound 0.01 µM", "result": 0.361},
      {"measurement": "relative viability", "setting": "[10]; first compound 0.03162 µM", "result": 0.497},
      {"measurement": "relative viability", "setting": "[10]; first compound 0.3162 µM", "result": 0.449},
      {"measurement": "relative viability", "setting": "[11]; first compound 0.01 µM", "result": 0.765},
      {"measurement": "relative viability", "setting": "[11]; first compound 0.03162 µM", "result": 0.691},
      {"measurement": "relative viability", "setting": "[11]; first compound 0.3162 µM", "result": 0.743},
      {"measurement": "relative viability", "setting": "[12]; first compound 0.01 µM", "result": 0.91},
      {"measurement": "relative viability", "setting": "[12]; first compound 0.03162 µM", "result": 0.875},
      {"measurement": "relative viability", "setting": "[12]; first compound 0.3162 µM", "result": 0.86},
      {"measurement": "relative viability", "setting": "[13]; first compound 0.01 µM", "result": 1.03},
      {"measurement": "relative viability", "setting": "[13]; first compound 0.03162 µM", "result": 0.85},
      {"measurement": "relative viability", "setting": "[13]; first compound 0.3162 µM", "result": 0.829},
      {"measurement": "relative viability", "setting": "[14]; first compound 0.01 µM", "result": 0.652},
      {"measurement": "relative viability", "setting": "[14]; first compound 0.03162 µM", "result": 0.571},
      {"measurement": "relative viability", "setting": "[14]; first compound 0.3162 µM", "result": 0.625},
      {"measurement": "relative viability", "setting": "[15]; first compound 0.01 µM", "result": 0.355},
      {"measurement": "relative viability", "setting": "[15]; first compound 0.03162 µM", "result": 0.329},
      {"measurement": "relative viability", "setting": "[15]; first compound 0.3162 µM", "result": 0.336},
      {"measurement": "relative viability", "setting": "[16]; first compound 0.01 µM", "result": 0.191},
      {"measurement": "relative viability", "setting": "[16]; first compound 0.03162 µM", "result": 0.213},
      {"measurement": "relative viability", "setting": "[16]; first compound 0.3162 µM", "result": 0.263},
      {"measurement": "relative viability", "setting": "[17]; first compound 0.03162 µM", "result": 0.307},
      {"measurement": "relative viability", "setting": "[17]; first compound 0.3162 µM", "result": 0.274},
      {"measurement": "relative viability", "setting": "[18]; first compound 0.01 µM", "result": 0.783},
      {"measurement": "relative viability", "setting": "[18]; first compound 0.03162 µM", "result": 0.74},
      {"measurement": "relative viability", "setting": "[18]; first compound 0.3162 µM", "result": 0.817},
      {"measurement": "relative viability", "setting": "[19]; first compound 0.01 µM", "result": 0.337},
      {"measurement": "relative viability", "setting": "[19]; first compound 0.03162 µM", "result": 0.306},
      {"measurement": "relative viability", "setting": "[19]; first compound 0.3162 µM", "result": 0.272},
      {"measurement": "relative viability", "setting": "[20]; first compound 0.01 µM", "result": 0.956},
      {"measurement": "relative viability", "setting": "[20]; first compound 0.03162 µM", "result": 0.945},
      {"measurement": "relative viability", "setting": "[20]; first compound 0.3162 µM", "result": 0.822},
      {"measurement": "relative viability", "setting": "[21]; first compound 0.01 µM", "result": 0.621},
      {"measurement": "relative viability", "setting": "[21]; first compound 0.03162 µM", "result": 0.644},
      {"measurement": "relative viability", "setting": "[21]; first compound 0.3162 µM", "result": 0.618},
      {"measurement": "relative viability", "setting": "[22]; first compound 0.01 µM", "result": 0.421},
      {"measurement": "relative viability", "setting": "[22]; first compound 0.03162 µM", "result": 0.41},
      {"measurement": "relative viability", "setting": "[22]; first compound 0.3162 µM", "result": 0.481},
      {"measurement": "relative viability", "setting": "[23]; first compound 0.01 µM", "result": 0.487},
      {"measurement": "relative viability", "setting": "[23]; first compound 0.03162 µM", "result": 0.506},
      {"measurement": "relative viability", "setting": "[23]; first compound 0.3162 µM", "result": 0.44}
    ]}
  ]
}
